Source: patent US7026344B2, “Treating sickle cell disease” (priority 2000, dated 2006)
Several values for one entry are separate records, joined by “and”; a condition that tells them apart may be missing. Identical values can stand only once.

Experiments:
[1] = tested on: primary erythroid progenitors (BFU-E colonies) from Hb SS patients; assay: BFU-E colony growth in methylcellulose culture, Hb SS patients; format: cell-based, human; details: for fold decrease in BFU-E colony number: 0 versus 100 μM, Hb SS patients; for BFU-E Difference: 0 vs 100 μM, sickle cell patients
Procedure: BFU-E Colony Growth. Mononuclear cells were isolated from the peripheral blood of each patient studied by density gradient centrifugation using Histapaque-1077 (Sigma). Erythroid progenitors were obtained in methylcellulose culture. ZL was added on day 0 at 25, 50, 75, or 100 μM concentrations for 13–14 days at which time the number of BFU-E colonies were counted on an inverted microscope and harvested for hemoglobin determinations.
The capability of ZL to induce hemoglobin F in primary erythroid progenitors, grown from peripheral blood mononuclear cells (MNC) was analyzed. BFU-E colonies were grown in methylcellulose cultures supplemented with erthyopoietin and interleukin-3 and ZL at concentration from 0 to 100 μM. Three patients homozygous for hemoglobin S (Hb SS) were analyzed with triplicate experiments. The average BFU-E colony number was 123.2±18.6 without ZL compared to 10.6±2.0 at 100 μM concentrations, p<0.05 (Table 1). […] All pair-wise comparisons for BFU-E and hemoglobin F between 0μ and other concentrations (25, 50, 75 and 100 μM) were significant at p<0.05. The correlation coefficient between the number of BFU-E colonies or percent hemoglobin F and different levels of ZL is −0.90 and +0.79, respectively (p<0.05). […] (See Yang et al., BFU-E colony growth in response to hydroxyurea: correlation between in vitro and in vivo fetal hemoglobin induction. Am J Hematol. 1997; 56:252–258). […] HU either was more efficient in inhibiting BFU-E colony growth or alternatively the baseline number of colonies on an average was higher for the Hb SS patients in the HU cohort.

[2] = tested on: activated-PMN mediated SRBC retention/adherence in the isolated-perfused rat lung; assay: SRBC retention/adherence in isolated-perfused lung with PMA-activated PMNs; details: for SRBC retention/adherence: mean±SE
Procedure: Isolated perfused lung. Male Sprague-Dawley rats (275–350 g) were anesthetized with Nembutal sodium (25 mg ip), and lungs were removed for extracorporeal perfusion. A tracheostomy was performed that permitted ventilation with a Harvard rodent ventilator (model 683) at 55 breaths/min with a tidal volume of 2.5 ml and 2.0 cmH2O positive end-expiratory pressure. The inspired gas mixture as 95% air-5% CO2 (room air gas). A median stemotomy was performed, heparin sodium (100 IU) was injected in the right ventricle, and caminulas were placed in the pulmonary artery and left ventricle. Heart, lungs, and mediastinal structures were removed en bloc and placed into a humidified chamber. Lungs were perfused by a Gilson Minipuls 2 peristaltic pump at a constant flow of 0.03 ml·g body wt^−1·min^−1. Lungs were perfused with a physiological salt solution (PSS) containing bovine serum albumin (BSA, 66,000 mol.wt). The PSS-BSA perfusate contained (in mM) 119 NaCl, 4.7 KCI, 1.17 MgSO4, 22.5 NaHCO3, 1.18 KH2PO4, 3.2 CaCl2, 5.5 glucose, and 4 g/100 ml BSA. PSS-BSA (100 ml) was perfused through the lungs in a nonrecirculating fashion to remove residual blood cells and plasma. The perfusate was then changed to a PSS-BSA perfusate that contained RBCs from individuals homozygous for sickle cell anemia (Hb SS). The perfusate hematocrit was ˜10%. Pulmonary arterial pressure (Ppa) and pulmonary venous (Ppv) were continuously monitored with Cope pressure transducers (model 041-500-503) and recorded on a Grass polygraph recorder (model 7E). Zone 3 flow conditions (arterial>venous>alveolar pressures) were maintained throughout all experiments.
Blood collection. During steady-state, blood samples (˜40 ml) were obtained from normal (Hemoglobin A) human volunteers and from individuals with homozygous sickle cell anemia in the sickle cell clinics at the University of South Alabama. Samples were collected in syringes containing heparin and utilized within 48 hours of collection. Individuals having received blood transfusions within 6 wks were excluded from this study. Sickle cell anemia was documented by hemoglobin electrophoresis in each subject.
RBC isolation and Cr^51 labeling. Each whole blood sample was centrifuged at 4100 rpm for 10 min followed by the removal of the plasma and buffy coat. Packed RBCs were then mixed at a 1:3 dilution with normal saline and washed ×3. With each wash, the RBC suspension was centrifuged for 10 min at 3000 rpm followed by removal of the supernatant. Following the third wash, packed RBCs were resuspended in PBS (1 ml PBS/1 ml packed RBCs) and incubated with 100 μCi Cr^51 for 60 min in a shaker water bath at 37° C. Following incubation, the Cr^51 labeled RBCs were washed ×1 with normal saline and resuspended in PSS-BSA to obtain a hematocrit of ˜10%.
Neutrophil (PMN) isolations. Heparinized whole blood (20 ml) from individuals with homozygous sickle cell anemia was diluted 1:1 with normal saline. Dextran 500 was added to the 1:1 mix at ¼ the volume of the 1:1 mix. This was allowed to incubate for 45 min at 37° C. The supernatant (contains PMNs) was aspirated into a 50 ml centrifuge tube and underlayered with 10 ml histopague 1077. This was centrifuged at 1250 rpm for 30 min. The supernatant is aspirated and discarded leaving the PMN pellet. Sterile H2O, 3 ml, is added to the PMN pellet and agitated for 3 sec to lyse any residual RBCs. Phosphate buffered saline, 45 ml, is added immediately thereafter to stop the reaction. This is centrifuged at 1250 rpm for 10 min. The supernatant is aspirated and discarded. This process of RBC lysis followed by PBS is repeated until the PMN pellet is without visual evidence of RBC contamination. The PMN pellet is suspended in 1 ml of sterile Hank's balanced salt solution. A total PMN count is obtained using the Cell-DYN 900 Coulter Counter. PMN viability is 95–99% as assessed using trypan blue.
RBC Retention. […]

[3] = tested on: K562 cells; assay: K562 cell viability by trypan blue exclusion; format: cell-based, human; details: 75 μM and 100 μM
Procedure: Cell Culture. K562 cells were grown in suspension cultures in RPMI-1640 containing 10% fetal bovine serum, penicillin (100 U/ml) and streptomycin (0.1 mg/ml in a humidified incubator at 37° C. in a 5%CO2/95% air atmosphere. […] The K562 cells were induced for 72 hours then RNA isolated for further analysis. Cell viability was completed by 2% trypan blue exclusion at timnes 0 and 72 hours.

For NC(=O)NO [HU, Hydroxyurea], the “fold decrease in BFU-E colony number” value [1] was 21.3 fold, the “BFU-E Difference” value [1] was 146.4 ± 9.1 and the SRBC retention/adherence ([2]; HU 50 μM pretreated A-PMN) was 4.2±0.4 ×10^8 SRBC/gram of lung. For the same molecule, the SRBC retention/adherence ([2]; HU 100 μM pretreated A-PMN) was 4.3±0.4 ×10^8 SRBC/gram of lung, the SRBC retention/adherence ([2]; HU 1000 μM pretreated A-PMN) was 3.9±0.2 ×10^8 SRBC/gram of lung and the “decrease in retained SRBCs” value ([2]; HU 1000 μM pretreated PMNs vs control (H2O diluent)) was about 25%. The “attenuation of activated-PMN mediated enhanced SRBC retention/adherence” value ([2]; HU 50 and 100 μM) was “did not attenuate” and the “decrease in K562 cell viability” value [3] was 10%.
For CC(c1cc2ccccc2s1)N(O)C(N)=O (racemic) [ZL, (±)-1-(1-Benzo[b]thien-2-ylethyl)-1-hydroxyurea], the “fold decrease in BFU-E colony number” value [1] was 11.7 fold, the “BFU-E Difference” value [1] was 112.6 ± 19.1 and the BFU-E ([1]; zileuton 25 μM, individual Hb SS patients (No. 1-3), colony number, 13–14 days) was 137 and 61 and 91. For the same molecule, the BFU-E ([1]; zileuton 25 μM, mean ± SEM of three Hb SS patients) was 96.4 ± 11.1, the BFU-E ([1]; zileuton 50 μM, individual Hb SS patients (No. 1-3), colony number) was 62 and 47 and 72 and the BFU-E ([1]; zileuton 50 μM, mean ± SEM of three Hb SS patients) was 60.4 ± 4.3. The BFU-E ([1]; zileuton 75 μM, individual Hb SS patients (No. 1-3), colony number) was 23 and 27 and 43, the BFU-E ([1]; zileuton 75 μM, mean ± SEM of three Hb SS patients) was 31.1 ± 3.2 and the BFU-E ([1]; zileuton 100 μM, individual Hb SS patients (No. 1-3), colony number) was 13 and 12 and 7. For the same molecule, the BFU-E ([1]; zileuton 100 μM, mean of three Hb SS patients) was 10.6±2.0 and 10.5, the BFU-E ([1]; zileuton 100 μM, mean of three Hb SS patients, listed as zileuton) was 10.5 ± 1.3 and the “decrease in SRBC retention/adherence” value ([2]; ZL 2.5 μM pretreated A-PMN vs SRBC+A-PMN control (ethanol diluent), 30 min perfusion) was about 42%. For the same molecule, the “decrease in K562 cell viability” value [3] was 10%.
